Key:
Type in all cases: biochemical
HDAC = HDAC fluorimetric assay kit (HeLa nuclear extract)
Procedure: (b) An In Vitro Assay which Determines the Ability of a Test Compound to Inhibit HDAC Enzymatic Activity.
HDAC inhibitors were screened using an HDAC fluorimetric assay kit (AK-500, Biomol, Plymouth Meeting, Pa.). Test compounds were dissolved in dimethylsulphoxide (DMSO) to give a 20 mM working stock concentration. Fluorescence was measured on a WALLAC Victor 2 plate reader and reported as relative fluorescence units (RFU). Data were plotted using GraphPad Prism (v4.0a) and IC50's calculated using a sigmoidal dose response curve fitting algorithm. Each assay was setup as follows: Defrosted all kit components and kept on ice until use. Diluted HeLa nuclear extract 1:29 in Assay Buffer (50 mM Tris/Cl, pH 8.0, 137 mM NaCl, 2.7 mM KCl, 1 mM MgCl2). Prepared dilutions of Trichostatin A (TSA, positive control) and tested compounds in assay buffer (5× of final concentration). Diluted Fluor de Lys™ Substrate in assay buffer to 100 uM (50 fold=2× final). Diluted Fluor de Lys™ developer concentrate 20-fold (e.g. 50 μl plus 950 μl Assay Buffer) in cold assay buffer. Second, diluted the 0.2 mM Trichostatin A 100-fold in the 1× Developer (e.g. 10 μl in 1 ml; final Trichostatin A concentration in the 1× Developer=2 μM; final concentration after addition to HDAC/Substrate reaction=1 μM). Added Assay buffer, diluted trichostatin A or test inhibitor to appropriate wells of the microtiter plate. Added diluted HeLa extract or other HDAC sample to all wells except for negative controls. Allowed diluted Fluor de Lys™ Substrate and the samples in the microtiter plate to equilibrate to assay temperature (e.g. 25 or 37° C. Initiated HDAC reactions by adding diluted substrate (25 μl) to each well and mixing thoroughly. Allowed HDAC reactions to proceed for 1 hour and then stopped them by addition of Fluor de Lys™ Developer (50 μl). Incubated plate at room temperature (25° C.) for 10-15 min. Read samples in a microtiter-plate reading fluorimeter capable of excitation at a wavelength in the range 350-380 nm and detection of emitted light in the range 440-460 nm.

human VEGFR2 = molecular target: T1, human VEGFR2 (Homo sapiens, UniProt P35968); assay: VEGFR2/KDR radioisotope kinase assay; conditions: 100 μM ATP; read-out: VEGFR2 IC50
T1 construct: kinase domain (amino acids 790 to end) fragment; 6xHis (N); made in house; host or cells: Sf21 insect cells (baculovirus)
Procedure: (a) An In Vitro Assay which-Determines the Ability of a Test Compound to Inhibit a Receptor Tyrosine Kinase.
The ability of compounds to inhibit receptor kinase (VEGFR2 and PDGFR-beta) activity was assayed using standard radioisotope assay for kinase. […] The proteins were purified using Ni2+/NTA agarose affinity column to purity
>85% as determined by coomassie blue-stained SDS-PAGE gel. For VEGFR2/KDR assay, p33 ATP tracers were incubated with purified recombinant VEGFR2 kinase to monitor the enzyme activity. In this assay, reactions were carried out in the presence of 0.1 mg/ml VEGFR2 kinase and 0.33 mg/ml myelin basic protein. The reaction was carried out at 30° C. for 120 minutes in a final assay condition contained 50 mM Tris-HCl, pH 7.5, 300 mM NaCl, 0.1 mM EGTA, 0.03% Brij 35, 270 mM sucrose, 1 mM benzamidine, 0.2 mM PMSF, 0.1% 2-mercaptoethanol and 100 μM ATP. An equal volume of 25% TCA was added to stop the reaction and precipitate the labeled proteins. Precipitated proteins were trapped onto glass fiber B filterplates and excess unlabeled p33 ATP was washed off. The plates were allowed to air-dry prior to the addition of 30 uL/well of Packard Microscint 20. The amount of incorporated isotope was measured using a Perkin Elmer TopCount plate reader. Different concentrations of compounds were added to reaction to assess the activity of compounds to inhibit VEGFR2 kinase. IC50 was calculated using Prism software with sigmoidal dose-response curve fitting.

human EGFR = molecular target: T2, human EGFR (Homo sapiens, UniProt P00533); assay: EGFR kinase assay (HTScan EGF Receptor Kinase Assay Kit, DELFIA); conditions: 200 μM ATP
T2 construct: human EGFR (His672-Ala1210); purchased Cell Signaling Technologies; host or cells: baculovirus expression system
Procedure: (e) An In Vitro Assay which Determines the Ability of a Test Compound to Inhibit EGFR Kinase.
The ability of compounds to inhibit receptor kinase (EGFR) activity was assayed using HTScan™ EGF Receptor Kinase Assay Kits (Cell Signaling Technologies, Danvers, Mass.). EGFR tyrosine kinase was obtained as GST-kinase fusion protein which was produced using a baculovirus expression system with a construct expressing human EGFR (His672-Ala1210) (GenBank Accession No. NM_005228) with an amino-terminal GST tag. The protein was purified by one-step affinity chromatography using glutathione-agarose. An anti-phosphotyrosine monoclonal antibody, P-Tyr-100, was used to detect phosphorylation of biotinylated substrate peptides (EGFR), Biotin-PTP1B (Tyr66). Enzymatic activity was tested in 60 mM HEPES, 5 mM MgCl2 5 mM MnCl2 200 μM ATP, 1.25 mM DTT, 3 μM Na3VO4, 1.5 mM peptide, and 50 ng EGF Receptor Kinase. Bound antibody was detected using the DELFIA system (PerkinElmer, Wellesley, Mass.) consisting of DELFIA® Europium-labeled Anti-mouse IgG (PerkinElmer, #AD0124), DELFIA® Enhancement Solution (PerkinElmer, #1244-105), and a DELFIA® Streptavidin coated, 96-well Plate (PerkinElmer, AAAND-0005). Fluorescence was measured on a WALLAC Victor 2 plate reader and reported as relative fluorescence units (RFU). Data were plotted using GraphPad Prism (v4.0a) and IC50's calculated using a sigmoidal dose response curve fitting algorithm.
Test compounds were dissolved in dimethylsulfoxide (DMSO) to give a 20 mM working stock concentration. Each assay was setup as follows: Added 100 μl of 10 mM ATP to 1.25 ml 6 mM substrate peptide. Diluted the mixture with dH2O to 2.5 ml to make 2×ATP/substrate cocktail ([ATP]=[…], [substrate]=3 mM). Immediately transfer enzyme from −80° C. to ice. Allowed enzyme to thaw on ice. Microcentrifuged briefly at 4° C. to bring liquid to the bottom of the vial. Returned immediately to ice. Added 10 μl of DTT (1.25 mM) to 2.5 ml of 4× HTScan™ Tyrosine Kinase Buffer (240 mM HEPES pH 7.5, 20 mM MgCl2, 20 mM MnCl, 12 mM NaVO3) to make DTT/Kinase buffer. Transfer 1.25 ml of DTT/Kinase buffer to enzyme tube to make 4× reaction cocktail ([enzyme]=4 ng/μL in 4× reaction cocktail). Incubated 12.5 μl of the 4× reaction cocktail with 12.5 μl/well of prediluted compound of interest (usually around 10 μM) for 5 minutes at room temperature. Added 25 μl of 2×ATP/substrate cocktail to 25 μl/well preincubated reaction cocktail/compound. Incubated reaction plate at room temperature for 30 minutes. Added 50 μl/well Stop Buffer (50 mM EDTA, pH 8) to stop the reaction. Transferred 25 μl of each reaction and 75 μl dH2O/well to a 96-well streptavidin-coated plate and incubated at room temperature for 60 minutes. Washed three times with 200 μl/well PBS/T (PBS, 0.05% Tween-20). Diluted primary antibody, Phospho-Tyrosine mAb (P-Tyr-100), 1:1000 in PBS/T with 1% bovine serum albumin (BSA). Added 100 μl/well primary antibody. Incubated at room temperature for 60 minutes. Washed three times with 200 μl/well PBS/T. Diluted Europium labeled anti-mouse IgG 1:500 in PBS/T with 1% BSA. Added 100 μl/well diluted antibody. Incubated at room temperature for 30 minutes. Washed five times with 200 μl/well PBS/T. Added 100 μl/well DELFIA® Enhancement Solution. Incubated at room temperature for 5 minutes. Detected 615 nm fluorescence emission with appropriate Time-Resolved Plate Reader.

T1 sequence (P35968 790-1356 limits assumed): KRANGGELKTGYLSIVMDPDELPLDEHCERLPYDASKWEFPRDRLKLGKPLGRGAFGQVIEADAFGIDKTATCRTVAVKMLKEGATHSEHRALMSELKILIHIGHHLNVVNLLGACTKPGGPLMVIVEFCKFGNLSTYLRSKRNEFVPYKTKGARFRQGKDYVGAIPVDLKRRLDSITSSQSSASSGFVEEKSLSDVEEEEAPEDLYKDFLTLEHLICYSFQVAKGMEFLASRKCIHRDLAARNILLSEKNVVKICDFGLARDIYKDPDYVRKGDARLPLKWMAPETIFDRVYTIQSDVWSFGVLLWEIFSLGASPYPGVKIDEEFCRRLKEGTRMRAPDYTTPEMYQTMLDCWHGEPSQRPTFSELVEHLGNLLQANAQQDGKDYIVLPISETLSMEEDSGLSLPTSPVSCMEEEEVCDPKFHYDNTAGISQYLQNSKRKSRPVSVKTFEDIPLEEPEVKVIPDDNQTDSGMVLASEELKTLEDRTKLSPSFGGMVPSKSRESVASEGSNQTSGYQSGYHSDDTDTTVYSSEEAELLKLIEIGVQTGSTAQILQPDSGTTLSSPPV
T2 sequence (P00533 672-1210): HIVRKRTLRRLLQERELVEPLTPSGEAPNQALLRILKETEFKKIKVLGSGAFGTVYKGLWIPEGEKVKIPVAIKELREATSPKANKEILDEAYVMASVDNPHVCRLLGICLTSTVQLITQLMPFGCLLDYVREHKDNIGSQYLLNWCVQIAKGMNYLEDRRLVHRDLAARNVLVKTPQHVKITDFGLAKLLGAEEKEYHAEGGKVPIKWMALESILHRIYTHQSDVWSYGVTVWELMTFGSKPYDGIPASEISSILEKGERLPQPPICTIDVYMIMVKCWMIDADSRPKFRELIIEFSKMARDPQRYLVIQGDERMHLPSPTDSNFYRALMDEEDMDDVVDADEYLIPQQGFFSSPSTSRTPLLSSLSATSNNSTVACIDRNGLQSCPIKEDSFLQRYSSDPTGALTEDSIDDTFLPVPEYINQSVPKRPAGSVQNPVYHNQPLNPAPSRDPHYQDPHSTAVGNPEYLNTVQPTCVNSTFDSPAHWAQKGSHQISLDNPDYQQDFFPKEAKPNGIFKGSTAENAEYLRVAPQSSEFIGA

SMILES	IC50 (HDAC)	IC50 (human VEGFR2)	IC50 (human EGFR)
COc1cc2c(Nc3ccc4occc4c3)ncnc2cc1OCCCCCCC(=O)NO [Compound 6, 7-(4-(benzofuran-5-ylamino)-6-methoxyquinazolin-7-yloxy)-N-hydroxyheptanamide]	< 0.1 µM	1 to 10 µM	–
COc1cc2c(Oc3ccc4[nH]c(C)cc4c3F)ncnc2cc1OCCCCC(=O)NO [Compound 9, 5-(4-(4-fluoro-2-methyl-1H-indol-5-yloxy)-6-methoxyquinazolin-7-yloxy)-N-hydroxypentanamide]	0.1 to 1 µM	–	–
COc1cc2c(Nc3ccc4[nH]c(C)cc4c3F)ncnc2cc1OCCCCC(=O)NO [Compound 12, 5-(4-(4-fluoro-2-methyl-1H-indol-5-ylamino)-6-methoxyquinazolin-7-yloxy)-N-hydroxypentanamide]	0.1 to 1 µM	–	0.1 to 1 µM

From patent US20090076044A1, “VEGFR INHIBITORS CONTAINING A ZINC BINDING MOIETY” (priority 2007, published 2009)
